pIC50: −log10 of the molar value. Where a name gives a salt, the structure may show the parent alone. Read-outs that look alike come from different tables or passages of the source. One block for each molecule: values may come before it.
Columns and labels:
[1] = system: Metrazol-induced clonic seizures; experiment: scM (subcutaneous Metrazol) test, mice; format: in vivo; conditions: mice; for ED50: Mus musculus
Protocol: (§1) Evaluation of Compounds in scM Models of Seizures. Subcutaneous injection of the convulsant Metrazol produces clonic seizures in laboratory animals. […] Animals may be pretreated with various doses of the test compound given by ip injection. At a previously determined TPE (time to peak) of the test compound, the dose of Metrazol which will induce convulsions in 97% of animals (CD97:85 mg/kg mice) may be injected into a loose fold of skin in the midline of the neck. The animals may be placed in isolation cages to minimize stress and observed for the next 30 min for the presence or absence of a seizure. An episode of clonic spasms, approximately 3-5 seconds, of the fore and/or hindlimbs, jaws, or vibrissae may be taken as the endpoint. […] The scM test represents acute animal seizures.

[2] = system: 6 Hz psychomotor seizures; experiment: 6 Hz psychomotor seizure test, mice; format: in vivo; conditions: IP; for 6 Hz (32 mA) ED50 / 6 Hz (14 mA) ED50: Table 14; for ED50: Mus musculus
Protocol: Evaluation of Compounds in 6 Hz Pyschomotor Seizure Test
Compounds were tested using a 6 Hz psychomotor seizure test. […] For example, both the MES and scM models are insensitive to levetiracetam, a compound considered potentially useful in the management of refractory seizures. […] Thus, the 6 Hz test can serve as a therapy resistant screening paradigm of acute seizure activity.

[3] = system: maximal electroshock (MES) seizures; experiment: MES (maximal electroshock) test, mice; format: in vivo; conditions: mice; for ED50: Mus musculus
From the text: Evaluation of Compounds in MES Models of Seizures. […] These seizures are highly reproducible and are electrophysiologically consistent with human seizures. […] Abolition of the hindleg tonic extensor component of the seizure was used as the endpoint.

[4] = system: 6 Hz psychomotor seizures; conditions: cited from earlier work
[5] = system: Metrazol-induced clonic seizures; experiment: scM (subcutaneous Metrazol) test, rats; format: in vivo; conditions: Rattus norvegicus, rats
Protocol: as §1

[6] = system: maximal electroshock (MES) seizures; experiment: MES (maximal electroshock) test, rats; format: in vivo; conditions: Rattus norvegicus, rats
From the text: Evaluation of Compounds in MES Models of Seizures. The MES is a model for generalized tonic-clonic seizures and provides an indication of a compound's ability to prevent seizure spread when all neuronal circuits in the brain are maximally active. These seizures are highly reproducible and are electrophysiologically consistent with human seizures. […] Abolition of the hindleg tonic extensor component of the seizure was used as the endpoint.

[7] = Behavioral toxicity (TOX, TD50), rats; format: in vivo; conditions: rat, in vivo
Nav1.6 [8] = target: T1, Nav1.6 (Homo sapiens, UniProt Q9UQD0); experiment: % block of Nav1.6 at 100 μM and IC50 (NaV1.6); format: cell-based; conditions: for inhibition at 100 µM: 100 μM compound
T1 sequence (Q9UQD0 whole entry): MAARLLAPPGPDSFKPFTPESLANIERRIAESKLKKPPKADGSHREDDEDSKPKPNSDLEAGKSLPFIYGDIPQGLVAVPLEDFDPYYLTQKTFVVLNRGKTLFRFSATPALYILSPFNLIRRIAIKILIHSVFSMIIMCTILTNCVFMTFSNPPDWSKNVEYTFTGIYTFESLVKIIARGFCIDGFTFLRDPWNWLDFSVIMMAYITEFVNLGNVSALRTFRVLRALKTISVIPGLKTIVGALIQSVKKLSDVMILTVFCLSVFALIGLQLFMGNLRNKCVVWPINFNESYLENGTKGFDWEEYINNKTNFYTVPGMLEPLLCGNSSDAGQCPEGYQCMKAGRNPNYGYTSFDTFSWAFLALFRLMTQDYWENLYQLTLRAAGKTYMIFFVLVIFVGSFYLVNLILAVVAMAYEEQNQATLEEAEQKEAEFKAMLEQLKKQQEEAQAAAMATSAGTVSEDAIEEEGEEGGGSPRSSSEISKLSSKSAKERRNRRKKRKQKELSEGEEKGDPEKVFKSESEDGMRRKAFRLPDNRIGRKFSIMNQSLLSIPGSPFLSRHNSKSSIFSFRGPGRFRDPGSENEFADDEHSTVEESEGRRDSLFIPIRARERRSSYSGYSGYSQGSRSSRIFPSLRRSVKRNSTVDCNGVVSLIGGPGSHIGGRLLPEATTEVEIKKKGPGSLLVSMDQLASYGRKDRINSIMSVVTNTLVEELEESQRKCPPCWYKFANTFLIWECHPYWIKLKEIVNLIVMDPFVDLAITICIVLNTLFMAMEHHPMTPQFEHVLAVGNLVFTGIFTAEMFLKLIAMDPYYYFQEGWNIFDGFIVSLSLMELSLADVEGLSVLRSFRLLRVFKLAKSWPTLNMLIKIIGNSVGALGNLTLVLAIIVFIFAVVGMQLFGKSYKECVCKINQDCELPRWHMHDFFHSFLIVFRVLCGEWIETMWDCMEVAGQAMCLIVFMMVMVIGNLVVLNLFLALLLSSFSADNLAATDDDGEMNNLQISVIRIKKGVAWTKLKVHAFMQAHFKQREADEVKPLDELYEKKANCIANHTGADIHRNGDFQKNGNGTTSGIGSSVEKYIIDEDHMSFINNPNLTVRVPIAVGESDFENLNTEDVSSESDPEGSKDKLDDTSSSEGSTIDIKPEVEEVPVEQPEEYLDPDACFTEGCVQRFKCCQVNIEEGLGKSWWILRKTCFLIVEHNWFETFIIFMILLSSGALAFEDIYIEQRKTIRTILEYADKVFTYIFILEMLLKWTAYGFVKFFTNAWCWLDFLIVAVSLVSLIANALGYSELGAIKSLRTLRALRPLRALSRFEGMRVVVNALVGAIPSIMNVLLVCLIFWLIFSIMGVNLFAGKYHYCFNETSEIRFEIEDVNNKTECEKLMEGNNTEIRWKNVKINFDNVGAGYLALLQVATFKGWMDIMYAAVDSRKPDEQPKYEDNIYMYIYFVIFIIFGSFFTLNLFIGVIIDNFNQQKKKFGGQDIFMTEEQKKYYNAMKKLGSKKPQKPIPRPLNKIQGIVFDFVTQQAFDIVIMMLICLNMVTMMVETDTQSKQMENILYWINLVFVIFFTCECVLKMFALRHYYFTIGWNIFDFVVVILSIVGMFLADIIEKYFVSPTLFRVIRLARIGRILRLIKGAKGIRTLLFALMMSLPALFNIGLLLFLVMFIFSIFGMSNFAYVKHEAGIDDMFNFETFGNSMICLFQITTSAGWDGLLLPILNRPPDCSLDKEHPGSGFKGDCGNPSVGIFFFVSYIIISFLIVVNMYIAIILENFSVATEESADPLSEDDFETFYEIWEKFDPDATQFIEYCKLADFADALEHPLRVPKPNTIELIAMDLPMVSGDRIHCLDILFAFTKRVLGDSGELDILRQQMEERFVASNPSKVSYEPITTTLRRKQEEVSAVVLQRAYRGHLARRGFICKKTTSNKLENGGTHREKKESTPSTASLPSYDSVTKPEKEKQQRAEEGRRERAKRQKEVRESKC
Protocol: Evaluation of Compounds for % Block of Nav1.6 at 100 μM
Compounds of the present invention were tested in an assay for % block of Nav1.6 at a concentration of 100 μM compound. Table 1 also indicates the melting point ranges for some compounds.
Some such compounds correspond to a compound of Formula III, wherein R9 is substituted with a halogen, a nitro or a CF3 group. In comparing MV1089, MV1090 and MV1091, it is shown that compounds of Formula III where R3 is H result in higher % block than when R3 is substituted. e.g., by OCH3. In comparing MV1066, MV1084, MV1085, MV1086, MV1087 and MV1088, it is shown that compounds of Formula III where R9 is halogen, a nitro or a CF3 group result in higher % block than when R9 is OCH3, COOH or CH3.

in vivo = conditions: mouse
[9] = system: corneal kindled mice seizures; experiment: Corneal kindled mice model; format: in vivo; conditions: for Avg. Score / N/F (animals active over number tested): TPE 0.5 hours
Protocol: Evaluation of Compounds in Corneal Kindled Mice Model.
Corneal kindled mice are kindled electrically via 3 second stimulation at 8 mA, 60 Hz through corneal electrodes to produce 10 consecutive stage […] seizures according to the Racine scale. Animals are defined as kindled once they progress to a reproducible stage 5 seizure. 72 hours after the mice have been kindled the test substance is administered and, according to a previously determined TPE (time to peak), the animals are electrically stimulated. The animals are considered protected when displaying a stage 3, or lower, seizure.

Nav1.6 [10] = target: T1, Nav1.6; experiment: Qube assay, NaV1.6; format: cell-based; conditions: human isoform; read-out: Qube EP IC50 NaV1.6
Protocol: (§2) Evaluation of Compounds on Human Isoforms Using Qube Assay.
(§3) Compounds were tested using a Qube assay across NaV1.5, NaV1.6 and NaV1.7.

NaV1.5 [11] = target: T2, NaV1.5 (Homo sapiens, UniProt Q14524); experiment: Qube assay, NaV1.5; format: cell-based; conditions: human isoform; read-out: Qube EP IC50 NaV1.5
T2 sequence (Q14524 whole entry, canonical isoform): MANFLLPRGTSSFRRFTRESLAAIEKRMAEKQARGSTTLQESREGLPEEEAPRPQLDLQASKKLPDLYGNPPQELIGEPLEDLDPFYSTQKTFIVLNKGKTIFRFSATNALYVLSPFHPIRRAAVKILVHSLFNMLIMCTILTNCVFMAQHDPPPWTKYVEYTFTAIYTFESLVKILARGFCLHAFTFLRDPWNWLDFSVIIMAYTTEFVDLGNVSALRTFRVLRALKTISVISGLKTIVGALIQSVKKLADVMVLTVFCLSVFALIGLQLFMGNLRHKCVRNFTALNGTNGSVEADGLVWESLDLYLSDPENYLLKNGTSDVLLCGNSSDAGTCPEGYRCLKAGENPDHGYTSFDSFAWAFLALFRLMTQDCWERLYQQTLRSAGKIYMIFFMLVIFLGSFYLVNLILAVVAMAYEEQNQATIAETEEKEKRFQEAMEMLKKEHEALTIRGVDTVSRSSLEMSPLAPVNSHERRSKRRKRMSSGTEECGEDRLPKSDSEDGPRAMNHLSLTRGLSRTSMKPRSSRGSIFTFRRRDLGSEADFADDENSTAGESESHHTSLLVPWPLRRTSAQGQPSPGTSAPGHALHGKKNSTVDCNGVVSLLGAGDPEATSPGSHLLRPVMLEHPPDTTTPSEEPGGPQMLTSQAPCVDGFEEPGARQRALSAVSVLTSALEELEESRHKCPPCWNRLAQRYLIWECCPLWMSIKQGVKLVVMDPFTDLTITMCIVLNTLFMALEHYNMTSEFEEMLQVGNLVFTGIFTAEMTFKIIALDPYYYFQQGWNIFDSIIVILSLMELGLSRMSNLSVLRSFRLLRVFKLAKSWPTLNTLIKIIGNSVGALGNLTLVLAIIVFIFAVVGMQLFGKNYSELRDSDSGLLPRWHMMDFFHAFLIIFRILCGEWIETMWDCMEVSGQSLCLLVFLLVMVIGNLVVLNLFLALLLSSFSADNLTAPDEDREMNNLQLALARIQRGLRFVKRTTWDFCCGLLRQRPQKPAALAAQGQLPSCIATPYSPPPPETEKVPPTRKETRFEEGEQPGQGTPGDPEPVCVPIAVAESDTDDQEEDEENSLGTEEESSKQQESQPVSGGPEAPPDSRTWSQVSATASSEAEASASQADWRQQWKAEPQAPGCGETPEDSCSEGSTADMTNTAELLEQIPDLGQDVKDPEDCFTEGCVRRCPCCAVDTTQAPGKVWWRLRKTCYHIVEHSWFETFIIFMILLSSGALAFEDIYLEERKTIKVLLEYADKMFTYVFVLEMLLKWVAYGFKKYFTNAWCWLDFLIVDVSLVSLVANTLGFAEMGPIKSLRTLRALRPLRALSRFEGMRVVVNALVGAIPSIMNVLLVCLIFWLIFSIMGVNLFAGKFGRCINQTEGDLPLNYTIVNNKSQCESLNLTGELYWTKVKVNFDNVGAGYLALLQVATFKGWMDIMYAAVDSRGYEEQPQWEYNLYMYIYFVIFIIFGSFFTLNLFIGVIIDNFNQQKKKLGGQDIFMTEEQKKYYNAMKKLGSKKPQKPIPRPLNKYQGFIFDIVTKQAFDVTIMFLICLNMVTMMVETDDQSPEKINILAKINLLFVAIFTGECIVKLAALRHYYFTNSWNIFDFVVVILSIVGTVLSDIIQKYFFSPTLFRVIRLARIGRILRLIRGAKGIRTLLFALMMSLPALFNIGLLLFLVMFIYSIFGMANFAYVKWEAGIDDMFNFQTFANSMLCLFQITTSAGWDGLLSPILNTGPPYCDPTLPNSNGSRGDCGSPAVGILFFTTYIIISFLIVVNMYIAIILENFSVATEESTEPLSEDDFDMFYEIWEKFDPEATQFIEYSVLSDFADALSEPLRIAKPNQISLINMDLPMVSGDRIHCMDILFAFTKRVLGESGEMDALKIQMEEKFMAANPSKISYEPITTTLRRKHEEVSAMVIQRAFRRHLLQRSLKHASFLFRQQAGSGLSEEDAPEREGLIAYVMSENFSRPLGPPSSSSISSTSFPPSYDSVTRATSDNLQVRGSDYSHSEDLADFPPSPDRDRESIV
Protocol: as §2, §3

NaV1.5 [12] = target: T2, NaV1.5; experiment: High-throughput flux assay, NaV1.5; format: cell-based; conditions: human isoform;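 note: IC50 from the flux assay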
Protocol: (§4) Evaluation of Compounds on Human Isoforms Using a High-Throughput Flux Assay
(§5) Compounds were tested using a high-throughput flux assay across Nav1.5, Nav1.6 and Nav1.7.

NaV1.7 [13] = target: T3, NaV1.7 (Homo sapiens, UniProt Q15858); experiment: High-throughput flux assay, NaV1.7; format: cell-based; conditions: human isoform;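 note: IC50 from the flux assay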
Protocol: as §4, §5

NaV1.7 [14] = target: T3, NaV1.7; experiment: Qube assay, NaV1.7; format: cell-based; conditions: human isoform; read-out: Qube EP IC50 NaV1.7
Protocol: as §2, §3

Nav1.6 [15] = target: T1, Nav1.6; experiment: High-throughput flux assay, Nav1.6; format: cell-based; conditions: human isoform;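 note: IC50 from the flux assay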
Protocol: as §4, §5

[16] = IP, Table 14, read-out: MES ED50
[17] = IP, Table 14, read-out: sCM ED50
[18] = 32 mA, Table 14, read-out: 6 Hz (32 mA) ED50
[19] = (14 mA) [sic], Table 14, read-out: 6 Hz (14 mA) ED50

SMILES: NC(=O)N1c2ccccc2C=Cc2ccccc21 [Carbamazepine, reference compound]
- sCM ED50 ([1]; IP, Table 14): None
- TOX (TD50) (mice; mice, IP, Table 14): 45.5 mg/kg
- 6 Hz (32 mA) ED50 ([2]; 32 mA): None
- 6 Hz (14 mA) ED50 ([2]; (14 mA) [sic]): None
- ED50 [3, 16]: 7.8 mg/kg

SMILES: CCC1(C)CC(=O)NC1=O (stereo not shown) [Ethosuximide, reference compound]
- activity in 6 Hz test ([4]; 44 mA): ineffective
- ED50 [1, 17]: 136 mg/kg
- TOX (TD50) (mice; mouse, in vivo, ip): 341 mg/kg
- 6 Hz (14 mA) ED50 ([2]; (14 mA) [sic]): None
- ED50 [2, 18]: 167 mg/kg
- MES ED50 ([3]; IP, Table 14): None

SMILES: Nc1nnc(-c2cccc(Cl)c2Cl)c(N)n1 [Lamotrigine, reference compound]
- activity in 6 Hz test ([4]; 32 mA): lose activity
- sCM ED50 ([1]; IP, Table 14): None
- 6 Hz (32 mA) ED50 ([2]; 32 mA): None
- 6 Hz (14 mA) ED50 ([2]; (14 mA) [sic]): None
- ED50 [3, 16]: 7.5 mg/kg

SMILES: COc1ccc(-c2nc3ccccc3[nH]2)cc1 [MV1062, 2-(4-methoxyphenyl)-1H-1,3-benzodiazole]
- ED50 ([5]; sc, read-out: ED50 (scM test)): 123 mg/kg
- ED50 ([5]; IP, Table 15, read-out: sCM ED50): 122 mg/kg
- ED50 ([1]; sc, read-out: ED50 (scM test)): 206 mg/kg
- ED50 [1, 17]: 206 mg/kg
- ED50 ([6]; IP, Table 15, read-out: MES ED50): 10.8 mg/kg
- ED50 ([6]; read-out: ED50 (MES test)): 10.8 mg/kg
- TD50 ([7]; IP, Table 15, read-out: TOX TD50): > 500 mg/kg
- TD50 ([7]; read-out: TD50 (behavioral toxic dose)): > 500 mg/kg
- ED50 [2, 18]: 69.6 mg/kg
- ED50 [2, 19]: 80.5 mg/kg
- ED50 [3, 16]: 30.8 mg/kg
- ED50 ([3]; read-out: ED50 (MES test)): 30.8 mg/kg
- inhibition at 100 µM (Nav1.6 [8]): 70%
- pIC50 (Nav1.6 [8]; NaV1.6, Table 2, MV1060-MV1091, unit inferred, read-out: IC50): 4.04
- TD50 (in vivo): 601 mg/kg
- TD50 (in vivo; ip): 601 mg/kg
- Avg. Score ([9]; 20 mg/kg): 5.0
- N/F (animals active over number tested) ([9]; 20 mg/kg): 0/8
- Avg. Score ([9]; 55 mg/kg): 4.0
- N/F (animals active over number tested) ([9]; 55 mg/kg): 3/8
- Avg. Score ([9]; 100 mg/kg): 1.375
- N/F (animals active over number tested) ([9]; 100 mg/kg): 7/8
- ED50 ([9]; Mus musculus): 63.6 mg/kg

SMILES: O=C1NC(=O)C(c2ccccc2)(c2ccccc2)N1 [Phenytoin, reference compound]
- activity in 6 Hz test ([4]; 32 mA): lose activity
- sCM ED50 ([1]; IP, Table 14): None
- 6 Hz (32 mA) ED50 ([2]; 32 mA): None
- 6 Hz (14 mA) ED50 ([2]; (14 mA) [sic]): None

SMILES: CCCC(CCC)C(=O)O [Valproic Acid, reference compound]
- activity in 6 Hz test ([4]; 44 mA): need higher doses
- ED50 [1, 17]: 220 mg/kg
- ED50 [2, 18]: 126 mg/kg
- ED50 [2, 19]: 310 mg/kg
- ED50 [3, 16]: 263 mg/kg

SMILES: CC[C@@H](C(N)=O)N1CCCC1=O [levetiracetam]
- activity in 6 Hz test ([4]; 44 mA): need higher doses

Second part, led by results:

- inhibition at 100 µM (Nav1.6 [8]): 70%
SMILES: COc1ccccc1-c1nc(C)c(C)[nH]1 [MV1364, 2-(2-METHOXY-PHENYL)-4,5-DIMETHYL-1H-IMIDAZOLE OXALATE]

- inhibition at 100 µM (Nav1.6 [8]): 85%
SMILES: Cc1nc(-c2ccc(Cl)cc2)[nH]c1C [MV1365, 2-(4-CHLORO-PHENYL)-4,5-DIMETHYL-1H-IMIDAZOLE OXALATE]

- inhibition at 100 µM (Nav1.6 [8]): 95%
SMILES: Cc1nc(-c2cccc(Cl)c2)[nH]c1C [MV1366, 2-(3-CHLORO-PHENYL)-4,5-DIMETHYL-1H-IMIDAZOLE OXALATE]

- inhibition at 100 µM (Nav1.6 [8]): 45%
SMILES: Cc1nc(-c2ccccc2Cl)[nH]c1C [MV1367, 2-(2-CHLORO-PHENYL)-4,5-DIMETHYL-1H-IMIDAZOLE OXALATE]

- inhibition at 100 µM (Nav1.6 [8]): 85%
SMILES: CCCc1nc(-c2ccc(OC)cc2)[nH]c1C [MV1368, 2-(4-METHOXY-PHENYL)-5-METHYL-4-PROPYL-1H-IMIDAZOLE OXALATE]

- inhibition at 100 µM (Nav1.6 [8]): 100%
SMILES: CCCc1nc(-c2cccc(OC)c2)[nH]c1C [MV1369, 2-(3-METHOXY-PHENYL)-5-METHYL-4-PROPYL-1H-IMIDAZOLE OXALATE]

- inhibition at 100 µM (Nav1.6 [8]): 90%
SMILES: CCCc1nc(-c2ccccc2OC)[nH]c1C [MV1370, 2-(2-METHOXY-PHENYL)-5-METHYL-4-PROPYL-1H-IMIDAZOLE OXALATE]

- inhibition at 100 µM (Nav1.6 [8]): 100%
SMILES: CCCc1nc(-c2ccc(Cl)cc2)[nH]c1C [MV1371, 2-(4-CHLORO-PHENYL)-5-METHYL-4-PROPYL-1H-IMIDAZOLE OXALATE]

- inhibition at 100 µM (Nav1.6 [8]): 100%
SMILES: CCCc1nc(-c2cccc(Cl)c2)[nH]c1C [MV1372, 2-(3-CHLORO-PHENYL)-5-METHYL-4-PROPYL-1H-IMIDAZOLE OXALATE]

- pIC50 (Nav1.6 [10]): 5.13
- pIC50 (NaV1.7 [13]): 5.10
- inhibition at 100 µM (Nav1.6 [8]): 90%
- pIC50 (NaV1.7 [14]): 4.83
- pIC50 (Nav1.6 [15]): 5.56
SMILES: COc1ccc(-c2nc(C)c(-c3ccccc3)[nH]2)cc1 [MV1501, 2-(4-methoxyphenyl)-4-methyl-5-phenyl-1H-imidazole hydrochloride]
- pIC50 (NaV1.5 [11]): 4.57
- pIC50 (NaV1.5 [12]): 5.20

- pIC50 (Nav1.6 [10]): 5.40
- pIC50 (NaV1.7 [13]): 5.34
- inhibition at 100 µM (Nav1.6 [8]): 90%
- pIC50 (NaV1.7 [14]): 4.94
- pIC50 (Nav1.6 [15]): 5.72
SMILES: COc1ccc(-c2nc(C)c(-c3ccccc3)[nH]2)cc1O [MV1508, 2-methoxy-5-(5-methyl-4-phenyl-1H-imidazol-2-yl)phenol hydrochloride]
- pIC50 (NaV1.5 [11]): 4.93
- pIC50 (NaV1.5 [12]): 5.58

- pIC50 (Nav1.6 [10]): 5.08
- pIC50 (NaV1.7 [13]): 4.62
- inhibition at 100 µM (Nav1.6 [8]): 90%
- pIC50 (NaV1.7 [14]): 4.52
- pIC50 (Nav1.6 [15]): 5.25
SMILES: CC(=O)Nc1ccc(-c2nc(C)c(-c3ccccc3)[nH]2)cc1 [MV1509, N-2,4-[3-methyl-4-phenyl-1H-imidazol-2-yl)phenyl]acetamide hydrochloride]
- pIC50 (NaV1.5 [11]): 4.80
- pIC50 (NaV1.5 [12]): 5.10

Source: patent publication US12403128B2, “Compositions and methods for blocking sodium channels” (University of Virginia Patent Foundation, priority 2017, dated 2025)
